Assay results: patent US4866038A, “Method of stimulating integumental melanocytes by topical application of analogs of alpha-msh” (University Patents, Inc., priority 1988, dated 1989)

Assays:
frog (Rana pipiens) = type: cell-based
Description: Biological effect on in vivo and in vitro melanosome dispersion was examined using the frog (Rana pipiens) and the lizard (Anolis caroliniensis). [See Hadley et al., Science 213:1025-1027(1981)]; similar examinations were conducted with respect to the duration of its ability to stimulate melanosome dispersion in vitro using the skin bioassay as described in Shimume, Endrochrinology, 54:553-560(1954). The in vitro results are depicted in Table I.

[1] = tested on: TA-98 strain of S. typhimurium; assay: Ames microbacterial assay; conditions: TA-98, spontaneous revertants subtracted
Description: The Ames microbacterial assay was used for these tests which were performed both with and without a microsomal enzyme/NADPH generating system. Briefly, this test measures the number of reverse mutations which occur in special histidine-dependent strains of Salmonella typhimurium. Positives (mutations) are scored as the number of revertant cells which are able to form colonies in a histidine-deficient growth medium after exposure to a mutagenic substance.
All substances were dissolved in sterile 0.9% sodium chloride (without preservatives) to concentrations of 10^-2, 10^-3 and 10^-4 Molar. The TA-98 strain of S. typhimurium was used and experiments were performed with and without exposure to S-9 rat liver microsomal enzymes and an NADPH generating system. This enzyme cocktail can metabolically activate some compounds to mutagenic species. In addition to the melanotropins, Doxorubicin (Adriamycin™) was also simultaneously tested. […] It was thus included to act as a positive control. […] For the actual evaluation of revertants, the identity of the specific test compound was blinded.

C57BL/6JA^y yellow mouse = assay: subcutaneous injection, follicular melanogenesis in the yellow mouse; type: in vivo
Description: Alpha-MSH and [Nle^4 D-Phe^7 ]--alpha-MSH were synthesized. Mice (C57BL/6JA^y) originally obtained from the Jackson Laboratories (Bar Harbor, ME) were raised in our laboratory with continuous access to food and water.
Melanotropins induce melanogenesis only during hair growth, and melanosomes are continuously incorporated into cells of the hair shaft as long as the hair remains in the anagen (proliferative) phase of the hair cycle. Eumelanin synthesis in only those hairs currently growing results in the formation of a pattern showing the specific areas on the animal in the anagen phase at the time of hormone injection.

C57BL/6JA^y mice = assay: topical application in PEG ointment, follicular melanogenesis in the mouse; type: in vivo
Description: An area (2-3 cm^2) of hair on the posterior dorsum of 48-day old mice was plucked; in mice of this age, hair follicles in the posterior dorsum are in the telogen (resting) phase of the hair cycle. Plucking hairs from resting follicles stimulates new hair growth and by 7 days later those hairs being erupting through the skin surface. Mice were fitted with cardboard collars to prevent investigation and spread of the ointment to non-treated areas of the skin and then housed individually in cages. The ointment containing [Nle^4, D-Phe^7 -]alpha-MSH (0.5 ml, 10^-6 M) was applied daily to the plucked area at the time of new hair eruption. A sample of emerging hair was removed prior to topical application of the melanotropin and every 24 hours thereafter for seven days.
Eumelanin was not visible within hairs taken from control mice. […] Only phaeomelanosomes were present in mice treated with the control ointment containing no melanotropin.

[2] = tested on: Mice with some pigmentation on their skin; assay: topical Azone cream on mice with some skin pigmentation; type: in vivo, mouse; conditions: 1.8% azone, MSH 0.001% or 0.003%
Description: Example 4 was repeated with compositions comprising alpha-MSH or [Nle^4, D--Phe^7 ]-alpha-MSH in propylene glycol and 1-dodecylazacycloheptan-2-one [a synthetic polar surfactant previously known to enhance transdermal penetration of other compounds. See, e.g., Stoughton, R. B., Arch. Dematol. 118:479(1982); Stoughton, R. B. and W. O. McClure, Drug Devel. Indust. Pharm. 9(4):725(1983); (Azone)]. Although the vehicle was a solid at room temperature, it immediately softened and spread easily when applied to the shaved skin of the mouse.
In this example, the azone concentration was 1.8% and the MSH final concentration was either 0.001% (1mg/100g cream base) or 0.003%.
Mice with some pigmentation on their skin were treated with the same cream as Example 5.
The tails of the treated animals darkened in spite of not being directly treated topically.

[3] = single injection 0.05 ml, 10^-6 M

Compound | Relative Potency Frog (frog (Rana pipiens)) | REVERTANTS PER PLATE WITH S-9 ([1]; 10^-2 M) | REVERTANTS PER PLATE WITHOUT S-9 ([1]; 10^-2 M) | REVERTANTS PER PLATE WITH S-9 ([1]; 10^-3 M) | REVERTANTS PER PLATE WITHOUT S-9 ([1]; 10^-3 M) | REVERTANTS PER PLATE WITH S-9 ([1]; 10^-4 M) | REVERTANTS PER PLATE WITHOUT S-9 ([1]; 10^-4 M) | coat color change (C57BL/6JA^y yellow mouse; 14 consecutive daily injections) | duration of eumelanogenesis after the one injection (C57BL/6JA^y yellow mouse; [3]) | time to shift from phaeomelanin production to eumelanin synthesis within hair bulbs (C57BL/6JA^y yellow mouse; [3]) | time to eumelanin within hair bulbs following application (C57BL/6JA^y mice; topical ointment 0.5 ml, 10^-6 M daily, microscopic examination) | melanosomes within follicular melanocytes, electron microscopic examination (C57BL/6JA^y mice; topical ointment daily) | histologic examination of pigment [2] | tail colour, tail not directly treated [2]
CCCC[C@H](NC(C)=O)C(=O)N[C@@H](CCC(=O)O)C(=O)N[C@@H](Cc1c[nH]cn1)C(=O)N[C@H](Cc1ccccc1)C(=O)N[C@@H](CCCNC(=N)N)C(=O)N[C@@H](Cc1c[nH]c2ccccc12)C(=O)NCC(N)=O [Ac--[Nle^4 --D-Phe^7]--alpha-MSH4-10 --NH2] | 0.02 | 0 | 0 | 0 | 0 | 0 | 0 | – | – | – | – | – | – | –
[Nle^4, D--Phe^7 ]--alpha-MSH [[Nle^4, D-Phe^7]-alpha-MSH] | – | – | – | – | – | – | – | entire coat color was found to be changed | 96 h | 24 h | ≤ 24 h | presence of eumelanotic melanosomes within follicular melanocytes | increased pigment in the areas of non-follicular melancytes | darkened
